According to ChEMBL document CHEMBL1201862, “PubChem BioAssay data set” (2004):
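Test compounds were applied to cells in 96-well plates for 48 hours at 5 doses. At the GI50, growth is halved.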 Activity calls are given as the source filed them. Cut-off read from the data, not from the text of the source: active = GI50 up to about 1.1 µM and inactive = higher.

Tests used:
Experiment in all cases: DTP human tumour cell line panel, 48 h
NCI-H23 = tested on: NCI-H23
Hs-578T = tested on: Hs-578T
T47D = tested on: T47D
ACHN = tested on: ACHN
UO-31 = tested on: UO-31
SW-620 = tested on: SW-620
HOP-92 = tested on: HOP-92
U-251 = tested on: U-251
EKVX = tested on: EKVX
CCRF-CEM = tested on: CCRF-CEM
PC-3 = tested on: PC-3
NCI/ADR-RES = tested on: NCI/ADR-RES
NCI-H522 = tested on: NCI-H522
SK-MEL-28 = tested on: SK-MEL-28
SF-295 = tested on: SF-295
KM12 = tested on: KM12
HOP-62 = tested on: HOP-62
OVCAR-4 = tested on: OVCAR-4
SN12C = tested on: SN12C
DU-145 = tested on: DU-145
HCC 2998 = tested on: HCC 2998
RXF 393 = tested on: RXF 393
M14 = tested on: M14
SK-MEL-2 = tested on: SK-MEL-2
MDA-N = tested on: MDA-N
NCI-H460 = tested on: NCI-H460
UACC-257 = tested on: UACC-257
A549 = tested on: A549
MCF7 = tested on: MCF7
MDA-MB-435 = tested on: MDA-MB-435
LOX IMVI = tested on: LOX IMVI
CAKI-1 = tested on: CAKI-1
SNB-75 = tested on: SNB-75
IGROV-1 = tested on: IGROV-1
SNB-19 = tested on: SNB-19
786-0 = tested on: 786-0
MOLT-4 = tested on: MOLT-4
Malme-3M = tested on: Malme-3M
OVCAR-3 = tested on: OVCAR-3
TK-10 = tested on: TK-10
SK-OV-3 = tested on: SK-OV-3
COLO 205 = tested on: COLO 205
K562 = tested on: K562
MDA-MB-231 = tested on: MDA-MB-231
OVCAR-5 = tested on: OVCAR-5
HCT-15 = tested on: HCT-15
BT-549 = tested on: BT-549
SK-MEL-5 = tested on: SK-MEL-5
OVCAR-8 = tested on: OVCAR-8
SF-268 = tested on: SF-268
HCT-116 = tested on: HCT-116
HT-29 = tested on: HT-29
UACC-62 = tested on: UACC-62
RPMI-8226 = tested on: RPMI-8226
NCI-H226 = tested on: NCI-H226
A498 = tested on: A498
SR = tested on: SR
SF-539 = tested on: SF-539
HL-60 = tested on: HL-60

Brc1cccc(Nc2ncnc3sc4c(c23)CCC(Nc2cccc(Br)c2)C4)c1 (stereo not drawn)
GI50 (NCI-H23): > 100 µM (inactive) | GI50 (Hs-578T): > 100 µM (inactive) | GI50 (T47D): 6.55 µM (inactive) | GI50 (ACHN): > 100 µM (inactive) | GI50 (UO-31): > 100 µM (inactive) | GI50 (SW-620): > 100 µM (inactive) | GI50 (HOP-92): 26.2 µM (inactive) | GI50 (U-251): > 100 µM (inactive) | GI50 (EKVX): > 100 µM (inactive) | GI50 (CCRF-CEM): > 100 µM (inactive) | GI50 (PC-3): > 100 µM (inactive) | GI50 (NCI/ADR-RES): > 100 µM (inactive) | GI50 (NCI-H522): > 100 µM (inactive) | GI50 (SK-MEL-28): > 100 µM (inactive) | GI50 (SF-295): > 100 µM (inactive) | GI50 (KM12): > 100 µM (inactive) | GI50 (HOP-62): > 100 µM (inactive) | GI50 (OVCAR-4): > 100 µM (inactive) | GI50 (SN12C): > 100 µM (inactive) | GI50 (DU-145): > 100 µM (inactive) | GI50 (HCC 2998): > 100 µM (inactive) | GI50 (RXF 393): > 100 µM (inactive) | GI50 (M14): > 100 µM (inactive) | GI50 (SK-MEL-2): > 100 µM (inactive) | GI50 (MDA-N): > 100 µM (inactive) | GI50 (NCI-H460): > 100 µM (inactive) | GI50 (UACC-257): > 100 µM (inactive) | GI50 (A549): > 100 µM (inactive) | GI50 (MCF7): 83.8 µM (inactive) | GI50 (MDA-MB-435): > 100 µM (inactive) | GI50 (LOX IMVI): > 100 µM (inactive) | GI50 (CAKI-1): 79.8 µM (inactive) | GI50 (SNB-75): 65.9 µM (inactive) | GI50 (IGROV-1): 71.3 µM (inactive) | GI50 (SNB-19): > 100 µM (inactive) | GI50 (786-0): > 100 µM (inactive) | GI50 (MOLT-4): > 100 µM (inactive) | GI50 (Malme-3M): > 100 µM (inactive) | GI50 (OVCAR-3): > 100 µM (inactive) | GI50 (TK-10): > 100 µM (inactive) | GI50 (SK-OV-3): > 100 µM (inactive) | GI50 (COLO 205): > 100 µM (inactive) | GI50 (K562): > 100 µM (inactive) | GI50 (MDA-MB-231): > 100 µM (inactive) | GI50 (OVCAR-5): > 100 µM (inactive) | GI50 (HCT-15): > 100 µM | GI50 (BT-549): > 100 µM (inactive) | GI50 (SK-MEL-5): > 100 µM (inactive) | GI50 (OVCAR-8): > 100 µM (inactive) | GI50 (SF-268): > 100 µM (inactive) | GI50 (HCT-116): > 100 µM (inactive) | GI50 (HT-29): > 100 µM (inactive) | GI50 (UACC-62): > 100 µM (inactive)

CC(=O)NC1C(OCc2ccccc2)OC(CO)C(O)C1OCC(=O)N[C@@H](C)C(=O)N[C@H](CCC(=O)NCCCNc1ccc([N+](=O)[O-])c2[nH]c3ccccc3c(=O)c12)C(N)=O (stereo partly drawn)
GI50 (NCI-H23): > 100 µM (inactive) | GI50 (Hs-578T): 26.2 µM (inactive) | GI50 (T47D): > 100 µM (inactive) | GI50 (ACHN): 50.8 µM (inactive) | GI50 (UO-31): > 100 µM (inactive) | GI50 (SW-620): > 100 µM (inactive) | GI50 (HOP-92): > 100 µM (inactive) | GI50 (U-251): 48.3 µM (inactive) | GI50 (EKVX): 43 µM (inactive) | GI50 (CCRF-CEM): > 100 µM (inactive) | GI50 (PC-3): > 100 µM (inactive) | GI50 (NCI/ADR-RES): > 100 µM (inactive) | GI50 (NCI-H522): 29.3 µM (inactive) | GI50 (SK-MEL-28): > 100 µM (inactive) | GI50 (SF-295): 56.6 µM (inactive) | GI50 (KM12): 93.5 µM (inactive) | GI50 (HOP-62): 65 µM (inactive) | GI50 (OVCAR-4): 34 µM (inactive) | GI50 (SN12C): > 100 µM (inactive) | GI50 (DU-145): 60.8 µM (inactive) | GI50 (RPMI-8226): > 100 µM (inactive) | GI50 (HCC 2998): 49.3 µM (inactive) | GI50 (RXF 393): 63.5 µM (inactive) | GI50 (M14): > 100 µM (inactive) | GI50 (SK-MEL-2): > 100 µM (inactive) | GI50 (MDA-N): > 100 µM (inactive) | GI50 (NCI-H226): 25.5 µM (inactive) | GI50 (NCI-H460): 46.1 µM (inactive) | GI50 (UACC-257): 54 µM (inactive) | GI50 (A549): > 100 µM (inactive) | GI50 (A498): > 100 µM (inactive) | GI50 (MDA-MB-435): > 100 µM (inactive) | GI50 (LOX IMVI): 52.6 µM (inactive) | GI50 (CAKI-1): > 100 µM (inactive) | GI50 (SNB-75): 46.6 µM (inactive) | GI50 (IGROV-1): 23.4 µM (inactive) | GI50 (SNB-19): 37.4 µM (inactive) | GI50 (786-0): 34.2 µM (inactive) | GI50 (Malme-3M): 27.5 µM (inactive) | GI50 (OVCAR-3): > 100 µM (inactive) | GI50 (TK-10): 41.7 µM (inactive) | GI50 (SK-OV-3): > 100 µM (inactive) | GI50 (COLO 205): > 100 µM (inactive) | GI50 (SR): > 100 µM (inactive) | GI50 (K562): > 100 µM (inactive) | GI50 (MDA-MB-231): > 100 µM (inactive) | GI50 (SF-539): 53.2 µM (inactive) | GI50 (OVCAR-5): > 100 µM (inactive) | GI50 (HL-60): > 100 µM (inactive) | GI50 (HCT-15): 94.2 µM | GI50 (BT-549): 38.4 µM (inactive) | GI50 (SK-MEL-5): 57.9 µM (inactive) | GI50 (OVCAR-8): 92.9 µM (inactive) | GI50 (HCT-116): 45.4 µM (inactive) | GI50 (HT-29): 36.8 µM (inactive) | GI50 (UACC-62): 36.2 µM (inactive)

CC(=O)N(C(C)=O)n1nc2c(n1)C(=O)c1ccccc1C2=O
GI50 (NCI-H23): > 100 µM (inactive) | GI50 (Hs-578T): > 100 µM (inactive) | GI50 (T47D): > 100 µM (inactive) | GI50 (ACHN): > 100 µM (inactive) | GI50 (UO-31): > 100 µM (inactive) | GI50 (SW-620): > 100 µM (inactive) | GI50 (HOP-92): > 100 µM (inactive) | GI50 (U-251): > 100 µM (inactive) | GI50 (EKVX): > 100 µM (inactive) | GI50 (CCRF-CEM): > 100 µM (inactive) | GI50 (PC-3): > 100 µM (inactive) | GI50 (NCI/ADR-RES): > 100 µM (inactive) | GI50 (NCI-H522): > 100 µM (inactive) | GI50 (SK-MEL-28): > 100 µM (inactive) | GI50 (SF-295): > 100 µM (inactive) | GI50 (KM12): > 100 µM (inactive) | GI50 (HOP-62): > 100 µM (inactive) | GI50 (OVCAR-4): > 100 µM (inactive) | GI50 (SN12C): > 100 µM (inactive) | GI50 (DU-145): > 100 µM (inactive) | GI50 (RPMI-8226): > 100 µM (inactive) | GI50 (RXF 393): > 100 µM (inactive) | GI50 (M14): > 100 µM (inactive) | GI50 (SK-MEL-2): > 100 µM (inactive) | GI50 (MDA-N): > 100 µM (inactive) | GI50 (NCI-H460): > 100 µM (inactive) | GI50 (UACC-257): 81.5 µM (inactive) | GI50 (A549): > 100 µM (inactive) | GI50 (MCF7): > 100 µM (inactive) | GI50 (A498): > 100 µM (inactive) | GI50 (MDA-MB-435): > 100 µM (inactive) | GI50 (LOX IMVI): > 100 µM (inactive) | GI50 (CAKI-1): > 100 µM (inactive) | GI50 (IGROV-1): > 100 µM (inactive) | GI50 (SNB-19): > 100 µM (inactive) | GI50 (786-0): > 100 µM (inactive) | GI50 (MOLT-4): > 100 µM (inactive) | GI50 (Malme-3M): 68.1 µM (inactive) | GI50 (OVCAR-3): 28.1 µM (inactive) | GI50 (TK-10): > 100 µM (inactive) | GI50 (SK-OV-3): > 100 µM (inactive) | GI50 (COLO 205): > 100 µM (inactive) | GI50 (MDA-MB-231): > 100 µM (inactive) | GI50 (SF-539): > 100 µM (inactive) | GI50 (OVCAR-5): > 100 µM (inactive) | GI50 (HL-60): > 100 µM (inactive) | GI50 (HCT-15): > 100 µM | GI50 (BT-549): > 100 µM (inactive) | GI50 (SK-MEL-5): > 100 µM (inactive) | GI50 (OVCAR-8): > 100 µM (inactive) | GI50 (SF-268): > 100 µM (inactive) | GI50 (HCT-116): > 100 µM (inactive) | GI50 (HT-29): > 100 µM (inactive) | GI50 (UACC-62): > 100 µM (inactive)
